Experimental data reported in patent US20250114354A1, “COMBINATION TREATMENT REGIMENS - SMARCA2 DEGRADER WITH PD-1 INHIBITORS” (PRELUDE THERAPEUTICS INCORPORATED, priority 2023, published 2025).
Entries after “also recorded” stand apart in the source; their conditions may differ.

Columns and labels:
[1] = test system: T cells (human PBMCs co-cultured with SMARCA4 deleted NCI-H1299 cells); experiment: Flow cytometry of T cell activation markers in co-culture of NCI-H1299 cells and human PBMCs; format: cell-based; conditions: Formula (I) combined with Pembrolizumab, FIG. 1A
Text: Human peripheral blood mononuclear cells (PBMCs) were co-cultured with NCI-H1299 cells (SMARCA4 deleted NSCLC) with Pembrolizumab and/or Formula (I). The cell samples from co-culture were stained for CD3 (T cell marker), CD8 (T cell marker), and CD25 (T cell activation marker) and analyzed by flow cytometry to determine percentages of cells with marker positive populations.
(§1) H1299 (CRL-5803) and H1975 (CRL-5908) were purchased from the American […]. Human Mononuclear Cells (PBMC) (HUMANPBMC-0001989) were purchased from BioIVT. NCI-H1299, NCI-H1975 and all CT26 cells were cultured in RPMI-1640 (ATCC, 30-2001) supplemented with 10% FBS (Gibco, 26140-079) and 1× penicillin-streptomycin (Thermofisher, 15140122). Human Peripheral Bloogd Mononuclear Cells (PBMCs) were cultured in RPMI-1640, 20% FBS, 100U/ml Human Recombinant IL-2 (Gibco, PHC0027) and 1× penicillin-streptomycin. All cells were maintained at 37° C. in 5% CO2 in a humidified incubator.
Samples from co-culture were collected in Eppendorf tubes and 500 ul of PBS was added. The samples were centrifuged (300 g, 5 minutes) to wash. Supernatant was removed and the pellet was resuspended in 200 ul FACS buffer. Samples were placed on ice for 15 minutes to block. After blocking, the samples were centrifuged (300 g, 5 minutes). […]

[2] = test system: SMARCA4 WT NCI-H1975 cells; experiment: Incucyte 3D tumor spheroid growth, NCI-H1975 cells with human PBMCs; format: cell-based; conditions: Formula (I) 100 nM with pembrolizumab 100 ug/ml; FIG. 2C
Method: (§2) The cells were treated with or without Formula (I) and/or pembrolizumab. The data were generated with SMARCA4 deleted NCI-H1299 and SMARCA4 WT NCI-H1975 cells.
(§3) GFP-tagged tumor cells were seeded in 96 well Ultra-Low Adherence (ULA) plates (Corning, 7007) (2000 cells/well) and centrifuged briefly (300 g, 30 seconds) to induce cell aggregation. The cells were incubated at 37° C. overnight to allow complete aggregation into spheroids. Following the addition of immune cells with treatment of Pembrolizumab (MedChemExpress, HY-P9902) (100 ug/ml) and/or Formula (I) (100 nM). Three-dimensional tumor spheroid growth was monitored using Sartorius' Incucyte® SX1 Live-Cell Analysis.
(§4) H1299 and H1975 cells were seeded (500,000 cells/well) in 6 well Tissue Culture Treated plates (Corning 3516) and allowed to aggregate into tumor spheroids for 1-2 hours. Tumor spheroids were treated with 600 ul of Incucyte® Cytolight Lentivirus (Sartorius, 4481) for a MOI of 3 and 8 ug/ml Polybrene Transfection Reagent (Sigma-Aldrich, TR-1003). The cells were incubated at 37° C. overnight. Following incubation, media was removed and replaced with fresh media. GFP expression was monitored using Sartorius' Incucyte® SX1 Live-Cell Analysis System (9600-0031).

[3] = test system: SMARCA4 deleted NCI-H1299 cells; experiment: Incucyte 3D tumor spheroid growth, NCI-H1299 cells with human PBMCs; format: cell-based; conditions: Formula (I) 100 nM with pembrolizumab 100 ug/ml; FIG. 2C
Method: as §2, §3, §4

[4] = test system: IFN-gamma, IL-2 and Granzyme B in co-culture of NCI-H1299 cells and human PBMCs; experiment: Cytokine analysis (MSD U-PLEX) of co-culture supernatant; format: cell-based; conditions: Formula (I) combined with Pembrolizumab; conditioned media; FIG. 1B
Method: Supernatant from the co-culture were plated into a 96-well plate and cytokines were analyzed using the MSD U-PLEX Immuno-Oncology Group 1 (Human) kit (MesoScale Discovery, Custom-made kit). Expressions of IFN-gamma, IL-2 and Granzyme B are shown.
as §1
Supernatant from the co-culture were plated into a 96-well plate and cytokines were analyzed using the MSD U-PLEX Immuno-Oncology Group 1 (Human) kit (MesoScale Discovery, Custom-made kit).

[5] = test system: SMARCA4 deleted A549 cells; experiment: Incucyte 3D tumor spheroid growth, A549 cells with HLA-matched T cells; format: cell-based, human
Method: Green fluorescence protein (GFP) positive A549 cells were cultured with or without HLA-matched T cells and treated with Formula (I) in the spheroid culture system. Representative figures of the 3D cancer cell spheroids were shown.
The data were generated with SMARCA4 deleted A549 cells.
as §3

Cc1ncsc1-c1ccc([C@H](C)NC(=O)[C@@H]2C[C@@H](O)CN2C(=O)[C@@H](c2cc(O[C@@H](C)CN3CC[C@@H](N4CCN5c6cc(-c7ccccc7O)nnc6NC[C@H]5C4)C3)no2)C(C)C)cc1 [Formula (I)]
activated (CD25+) CD3+ T cells [1]: increased
activated (CD25+) CD8+ T cells [1]: increased
combination effect on NCI-H1975 spheroids cultured with PBMCs [2]: the combination effect was not seen
combination effect on NCI-H1299 spheroids cultured with PBMCs, compared to single agent treated groups [3]: showed more
Gramzyme B level in co-culture supernatant [4]: higher levels
IFN-g level in co-culture supernatant [4]: higher levels
IL-2 level in co-culture supernatant [4]: higher levels
T-cell mediated A549 killing ([5]; Formula (I) 100 nM in the presence of T cells, quantitated GFP positive cells, FIG. 2A/2B): significantly increased; also recorded: promoted
growth of A549 cancer cells (GFP positive) in 3D spheroid culture ([5]; Formula (I) 100 nM with HLA-matched T cells, FIG. 2A): inhibited growth
